Assay results reported in US4211772A, “Benzopyran glycoside acetals and ketals” (Laboratoires Sarget, priority 1977, dated 1980).
Converted amounts (≈) assume the structure as drawn. Where two headings read alike, the source gives them in different places.

Legend:
[1] = biological target: T1, Aldose Reductase (Bos taurus, UniProt P16116); test: Inhibition of aldose reductase in vitro (enzyme from beef eye lenses, glyceraldehyde substrate); type: biochemical; conditions: in DMF solution, read-out: percentages of inhibition (aldose reductase)
T1 construct: The enzyme is extracted from beef eye lenses; from tissue; host or cells: beef eye lenses
Text: Inhibition of Aldose Reductase In Vitro
The reoxidation of NADPH coupled to the enzymatic reaction was followed spectrophotometrically at 340 nm.

[2] = test system: carragenin edema; test: Anti-inflammatory activity: carragenin edema test; type: in vivo; conditions: for % inhibition of carragenin edema: borate buffer pH 7, 24 h; for inhibition in vivo at 75 mg/kg / inhibition in vivo at 100 mg/kg / inhibition in vivo at 150 mg/kg / inhibition in vivo at 200 mg/kg: Rattus norvegicus, ip
Summary of the method: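 Male Wistar EOPS rats receive 0.1 ml of 5% carragenin suspension in physiological serum into the hind-paw metatarsal muscle, with test substance given i.p. in neutralized solution at the same time. Paw edema is measured by plethysmometry at several times after carragenin and reported as % inhibition against pH-matched physiological serum controls.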

[3] = test system: OF1 EOPS mice; test: Acute i.p. toxicity in OF1 EOPS mice; type: in vivo; conditions: neutralized borate buffer, over 7 days
Description: The acute toxicity of the compounds of the present invention was determined in mice.

[4] = Solubilities in water; type: physicochemical; conditions: water; read-out: Solubilities in water
[5] = test system: capillary resistance; test: Capillaroprotecting effects: capillary resistance; type: in vivo, male OFA EOPS rats
Description: (§1) Capillaroprotecting effects
The capillary resistance was determined by a variant of the method of Charlier et al, Arch. Inter. Physiol.

[6] = test system: capillary permeability; test: Capillaroprotecting effects: capillary permeability; type: in vivo, conventional male Wistar rats
Description: as §1
The capillary permeability was determined by the method of Charlier et al, Arch. Inter. Physiol.

C[C@@H]1O[C@@H](Oc2c(-c3ccc(O)c(O)c3)oc3cc(O)cc(O)c3c2=O)[C@@H]2OC(C)(C)O[C@@H]2[C@H]1O [No. 3, 3-O-(2,3-O,O-isopropylidene-α-L-rhamnosyl)-quercetin]
inhibition at 100 µM ([1]; 10^-4 mole/l): 100%
inhibition at 10 µM ([1]; 10^-5 mole/l): 92%
inhibition at 1 µM ([1]; 10^-6 mole/l): 80%
inhibition at 0.1 µM ([1]; 10^-7 mole/l): 40%
% inhibition of carragenin edema ([2]; 75 mg/kg i.p.): 21%
% inhibition of carragenin edema ([2]; 100 mg/kg i.p.): 17%
% inhibition of carragenin edema ([2]; 150 mg/kg i.p.): 11%
% inhibition of carragenin edema ([2]; 200 mg/kg i.p.): 0%
inhibition in vivo at 75 mg/kg ([2]; 1 h, pH 7, read-out: % inhibition of carragenin edema, 75 mg/kg i.p., borate buffer pH 7, 1 h): 0%
inhibition in vivo at 75 mg/kg ([2]; 1 h, pH 7, read-out: % inhibition of carragenin edema, 75 mg/kg i.p., borate buffer pH 7, 1 h 1/2): 0%
inhibition in vivo at 100 mg/kg ([2]; 1 h, pH 7, read-out: % inhibition of carragenin edema, 100 mg/kg i.p., borate buffer pH 7, 1 h): 55%
inhibition in vivo at 100 mg/kg ([2]; 1 h, pH 7, read-out: % inhibition of carragenin edema, 100 mg/kg i.p., borate buffer pH 7, 1 h 1/2): 41%
inhibition in vivo at 150 mg/kg ([2]; 1 h, pH 7, read-out: % inhibition of carragenin edema, 150 mg/kg i.p., borate buffer pH 7, 1 h): 0%
inhibition in vivo at 150 mg/kg ([2]; 1 h, pH 7, read-out: % inhibition of carragenin edema, 150 mg/kg i.p., borate buffer pH 7, 1 h 1/2): 0%
inhibition in vivo at 200 mg/kg ([2]; 1 h, pH 7, read-out: % inhibition of carragenin edema, 200 mg/kg i.p., borate buffer pH 7, 1 h): 45%
inhibition in vivo at 200 mg/kg ([2]; 1 h, pH 7, read-out: % inhibition of carragenin edema, 200 mg/kg i.p., borate buffer pH 7, 1 h 1/2): 12%
inhibition in vivo at 75 mg/kg ([2]; 2 h, pH 7, read-out: % inhibition of carragenin edema, 75 mg/kg i.p., borate buffer pH 7, 2 h): 10%
inhibition in vivo at 100 mg/kg ([2]; 2 h, pH 7, read-out: % inhibition of carragenin edema, 100 mg/kg i.p., borate buffer pH 7, 2 h): 30%
inhibition in vivo at 150 mg/kg ([2]; 2 h, pH 7, read-out: % inhibition of carragenin edema, 150 mg/kg i.p., borate buffer pH 7, 2 h): 20%
inhibition in vivo at 200 mg/kg ([2]; 2 h, pH 7, read-out: % inhibition of carragenin edema, 200 mg/kg i.p., borate buffer pH 7, 2 h): 0%
inhibition in vivo at 75 mg/kg ([2]; 3 h, pH 7, read-out: % inhibition of carragenin edema, 75 mg/kg i.p., borate buffer pH 7, 3 h): 6%
inhibition in vivo at 100 mg/kg ([2]; 3 h, pH 7, read-out: % inhibition of carragenin edema, 100 mg/kg i.p., borate buffer pH 7, 3 h): 19%
inhibition in vivo at 150 mg/kg ([2]; 3 h, pH 7, read-out: % inhibition of carragenin edema, 150 mg/kg i.p., borate buffer pH 7, 3 h): 0%
inhibition in vivo at 200 mg/kg ([2]; 3 h, pH 7, read-out: % inhibition of carragenin edema, 200 mg/kg i.p., borate buffer pH 7, 3 h): 0%
inhibition in vivo at 75 mg/kg ([2]; 4 h, pH 7, read-out: % inhibition of carragenin edema, 75 mg/kg i.p., borate buffer pH 7, 4 h): 3%
inhibition in vivo at 100 mg/kg ([2]; 4 h, pH 7, read-out: % inhibition of carragenin edema, 100 mg/kg i.p., borate buffer pH 7, 4 h): 18%
inhibition in vivo at 150 mg/kg ([2]; 4 h, pH 7, read-out: % inhibition of carragenin edema, 150 mg/kg i.p., borate buffer pH 7, 4 h): 2%
inhibition in vivo at 200 mg/kg ([2]; 4 h, pH 7, read-out: % inhibition of carragenin edema, 200 mg/kg i.p., borate buffer pH 7, 4 h): 0%
inhibition in vivo at 75 mg/kg ([2]; 5 h, pH 7, read-out: % inhibition of carragenin edema, 75 mg/kg i.p., borate buffer pH 7, 5 h): 6%
inhibition in vivo at 100 mg/kg ([2]; 5 h, pH 7, read-out: % inhibition of carragenin edema, 100 mg/kg i.p., borate buffer pH 7, 5 h): 19%
inhibition in vivo at 150 mg/kg ([2]; 5 h, pH 7, read-out: % inhibition of carragenin edema, 150 mg/kg i.p., borate buffer pH 7, 5 h): 3%
inhibition in vivo at 200 mg/kg ([2]; 5 h, pH 7, read-out: % inhibition of carragenin edema, 200 mg/kg i.p., borate buffer pH 7, 5 h): 2%
inhibition in vivo at 75 mg/kg ([2]; 6 h, pH 7, read-out: % inhibition of carragenin edema, 75 mg/kg i.p., borate buffer pH 7, 6 h): 10%
inhibition in vivo at 100 mg/kg ([2]; 6 h, pH 7, read-out: % inhibition of carragenin edema, 100 mg/kg i.p., borate buffer pH 7, 6 h): 18%
inhibition in vivo at 150 mg/kg ([2]; 6 h, pH 7, read-out: % inhibition of carragenin edema, 150 mg/kg i.p., borate buffer pH 7, 6 h): 8%
inhibition in vivo at 200 mg/kg ([2]; 6 h, pH 7, read-out: % inhibition of carragenin edema, 200 mg/kg i.p., borate buffer pH 7, 6 h): 1%
inhibition in vivo at 75 mg/kg ([2]; read-out: % inhibition of carragenin edema, 75 mg/kg i.p., borate buffer pH 7, 1/2 h): 26%
inhibition in vivo at 100 mg/kg ([2]; read-out: % inhibition of carragenin edema, 100 mg/kg i.p., borate buffer pH 7, 1/2 h): 45%
inhibition in vivo at 150 mg/kg ([2]; read-out: % inhibition of carragenin edema, 150 mg/kg i.p., borate buffer pH 7, 1/2 h): 26%
inhibition in vivo at 200 mg/kg ([2]; read-out: % inhibition of carragenin edema, 200 mg/kg i.p., borate buffer pH 7, 1/2 h): 40%
dose until which no mortality resulted [3]: 400 mg/kg
solubility [4]: 1600 µg/mL (≈ 3.28 mM)
% of animals for which the effect is ≥ 25 u cm Hg/h ([5]; 50 mg/kg i.p.): 40%
capillary resistance, effect observed ([5]; 50 mg/kg i.p.): 19.5 ± 7.4 u cm Hg/h
% of animals for which the effect is ≥ 25 u cm Hg/h ([5]; 100 mg/kg i.p.): 80%
capillary resistance, effect observed ([5]; 100 mg/kg i.p.): 34.75 ± 11.1 u cm Hg/h
% of animals for which the effect is ≥ 25 u cm Hg/h ([5]; 200 mg/kg i.p.): 100%
capillary resistance, effect observed ([5]; 200 mg/kg i.p.): 56 ± 11.3 u cm Hg/h
percentage reduction of capillary permeability ([6]; 50 mg/kg i.p.): 21%
percentage reduction of capillary permeability ([6]; 100 mg/kg i.p.): 25%
percentage reduction of capillary permeability ([6]; 200 mg/kg i.p.): 59%
